Test results: ChEMBL document CHEMBL2440076, “New triarylpyrazoles as broad-spectrum anticancer agents: design, synthesis, and biological evaluation” (Eur J Med Chem, 2013)

Assays:
Type in all cases: functional
MDA-MB-435 [1] = assay: Growth inhibition of human MDA-MB-435 cells assessed as cell growth at 5X10'-5 M after 48 hrs by sulforhodamine B assay; conditions: MDA-MB-435, 48 h, read-out: Activity
Malme-3M = assay: Growth inhibition of human MALME-3M cells assessed as cell growth at 5X10'-5 M after 48 hrs by sulforhodamine B assay; conditions: read-out: Activity
COLO 205 = assay: Growth inhibition of human COLO205 cells assessed as cell growth at 5X10'-5 M after 48 hrs by sulforhodamine B assay; conditions: COLO 205, 48 h, read-out: Activity
BT-549 = assay: Growth inhibition of human BT549 cells assessed as cell growth at 5X10'-6 M after 48 hrs by sulforhodamine B assay; conditions: BT-549, 48 h, read-out: Activity
MDA-MB-231 [2] = assay: Growth inhibition of human MDA-MB-231 cells assessed as cell growth at 5X10'-6 M after 48 hrs by sulforhodamine B assay; conditions: MDA-MB-231, 48 h, read-out: Activity
M14 [3] = assay: Growth inhibition of human M14 cells assessed as cell growth at 5X10'-6 M after 48 hrs by sulforhodamine B assay; conditions: M14, 48 h, read-out: Activity
U-251 [4] = assay: Growth inhibition of human U251 cells assessed as cell growth at 5X10'-6 M after 48 hrs by sulforhodamine B assay; conditions: U-251, 48 h, read-out: Activity
NCI-H522 [5] = assay: Growth inhibition of human NCI-H522 cells assessed as cell growth at 5X10'-9 M after 48 hrs by sulforhodamine B assay; conditions: NCI-H522, 48 h, read-out: Activity
NCI-H226 [6] = assay: Growth inhibition of human NCI-H226 cells assessed as cell growth at 5X10'-9 M after 48 hrs by sulforhodamine B assay; conditions: NCI-H226, 48 h, read-out: Activity
K562 [7] = assay: Growth inhibition of human K562 cells assessed as cell growth at 5X10'-9 M after 48 hrs by sulforhodamine B assay; conditions: K562, 48 h, read-out: Activity
LOX IMVI = assay: Growth inhibition of human LOXIMVI cells assessed as cell growth at 5X10'-6 M after 48 hrs by sulforhodamine B assay; conditions: read-out: Activity
[8] = Growth inhibition of human HCC2998 cells assessed as cell growth at 5X10'-6 M after 48 hrs by sulforhodamine B assay; conditions: HCC 2998, 48 h, read-out: Activity
K562 [9] = assay: Growth inhibition of human K562 cells assessed as cell growth at 5X10'-6 M after 48 hrs by sulforhodamine B assay; conditions: K562, 48 h, read-out: Activity
CCRF-CEM = assay: Growth inhibition of human CCRF-CEM cells assessed as cell growth at 5X10'-6 M after 48 hrs by sulforhodamine B assay; conditions: read-out: Activity
MDA-MB-231 [10] = assay: Growth inhibition of human MDA-MB-231 cells assessed as cell growth at 5X10'-7 M after 48 hrs by sulforhodamine B assay; conditions: MDA-MB-231, 48 h, read-out: Activity
SN12C [11] = assay: Growth inhibition of human SN12C cells assessed as cell growth at 5X10'-7 M after 48 hrs by sulforhodamine B assay; conditions: read-out: Activity
OVCAR-5 = assay: Growth inhibition of human OVCAR5 cells assessed as cell growth at 5X10'-7 M after 48 hrs by sulforhodamine B assay; conditions: OVCAR-5, 48 h, read-out: Activity
U-251 [12] = assay: Growth inhibition of human U251 cells assessed as cell growth at 5X10'-7 M after 48 hrs by sulforhodamine B assay; conditions: U-251, 48 h, read-out: Activity
SF-268 = assay: Growth inhibition of human SF268 cells assessed as cell growth at 5X10'-7 M after 48 hrs by sulforhodamine B assay; conditions: SF-268, 48 h, read-out: Activity
NCI-H522 [13] = assay: Growth inhibition of human NCI-H522 cells assessed as cell growth at 5X10'-7 M after 48 hrs by sulforhodamine B assay; conditions: NCI-H522, 48 h, read-out: Activity
NCI-H460 = assay: Growth inhibition of human NCI-H460 cells assessed as cell growth at 5X10'-7 M after 48 hrs by sulforhodamine B assay; conditions: NCI-H460, 48 h, read-out: Activity
SR = assay: Growth inhibition of human SR cells assessed as cell growth at 5X10'-7 M after 48 hrs by sulforhodamine B assay; conditions: read-out: Activity
MOLT-4 = assay: Growth inhibition of human MOLT4 cells assessed as cell growth at 5X10'-7 M after 48 hrs by sulforhodamine B assay; conditions: MOLT-4, 48 h, read-out: Activity
MDA-MB-231 [14] = assay: Growth inhibition of human MDA-MB-231 cells assessed as cell growth at 5X10'-8 M after 48 hrs by sulforhodamine B assay; conditions: MDA-MB-231, 48 h, read-out: Activity
MCF7 = assay: Growth inhibition of human MCF7 cells assessed as cell growth at 5X10'-8 M after 48 hrs by sulforhodamine B assay; conditions: MCF7, 48 h, read-out: Activity
PC-3 = assay: Growth inhibition of human PC3 cells assessed as cell growth at 5X10'-8 M after 48 hrs by sulforhodamine B assay; conditions: PC-3, 48 h, read-out: Activity
MDA-MB-435 [15] = assay: Growth inhibition of human MDA-MB-435 cells assessed as cell growth at 5X10'-8 M after 48 hrs by sulforhodamine B assay; conditions: MDA-MB-435, 48 h, read-out: Activity
U-251 [16] = assay: Growth inhibition of human U251 cells assessed as cell growth at 5X10'-8 M after 48 hrs by sulforhodamine B assay; conditions: U-251, 48 h, read-out: Activity
SN12C [17] = assay: Growth inhibition of human SN12C cells assessed as cell growth at 5X10'-5 M after 48 hrs by sulforhodamine B assay; conditions: read-out: Activity
OVCAR-8 = assay: Growth inhibition of human OVCAR8 cells assessed as cell growth at 5X10'-5 M after 48 hrs by sulforhodamine B assay; conditions: OVCAR-8, 48 h, read-out: Activity
HCT-15 = assay: Growth inhibition of human HCT15 cells assessed as cell growth at 5X10'-8 M after 48 hrs by sulforhodamine B assay; conditions: HCT-15, 48 h, read-out: Activity
[18] = Growth inhibition of human HCC2998 cells assessed as cell growth at 5X10'-8 M after 48 hrs by sulforhodamine B assay; conditions: HCC 2998, 48 h, read-out: Activity
NCI-H322M = assay: Growth inhibition of human NCI-H322M cells assessed as cell growth at 5X10'-8 M after 48 hrs by sulforhodamine B assay; conditions: read-out: Activity
NCI-H226 [19] = assay: Growth inhibition of human NCI-H226 cells assessed as cell growth at 5X10'-8 M after 48 hrs by sulforhodamine B assay; conditions: NCI-H226, 48 h, read-out: Activity
OVCAR-3 = assay: Growth inhibition of human OVCAR3 cells assessed as cell growth at 5X10'-9 M after 48 hrs by sulforhodamine B assay; conditions: OVCAR-3, 48 h, read-out: Activity
M14 [20] = assay: Growth inhibition of human M14 cells assessed as cell growth at 5X10'-9 M after 48 hrs by sulforhodamine B assay; conditions: M14, 48 h, read-out: Activity
SNB-19 = assay: Growth inhibition of human SNB19 cells assessed as cell growth at 5X10'-9 M after 48 hrs by sulforhodamine B assay; conditions: SNB-19, 48 h, read-out: Activity
SF-295 = assay: Growth inhibition of human SF295 cells assessed as cell growth at 5X10'-9 M after 48 hrs by sulforhodamine B assay; conditions: SF-295, 48 h, read-out: Activity

For `COc1cc(-c2nn(-c3cccc(NC(=O)Nc4cc(C(F)(F)F)cc(C(F)(F)F)c4)c3)cc2-c2ccncc2)ccc1Cl`, the growth at 50 µM (MDA-MB-435 [1]) was -64%, the growth at 50 µM (Malme-3M) was -63% and the growth at 50 µM (COLO 205) was -95%. For the same compound, the growth at 5 µM (BT-549) was -27%, the growth at 5 µM (MDA-MB-231 [2]) was -84% and the growth at 5 µM (M14 [3]) was -29%. For the same compound, the growth at 5 µM (U-251 [4]) was -77%, the growth at 0.005 µM (NCI-H522 [5]) was 102% and the growth at 0.005 µM (NCI-H226 [6]) was 97%. The growth at 0.005 µM (K562 [7]) was 99%, the growth at 5 µM (LOX IMVI) was -90% and the growth at 5 µM [8] was -70%. It also gave a growth at 5 µM (K562 [9]) of -10%, a growth at 5 µM (CCRF-CEM) of -17% and a growth at 0.5 µM (MDA-MB-231 [10]) of 69%. For the same compound, the growth at 0.5 µM (SN12C [11]) was 75%, the growth at 0.5 µM (OVCAR-5) was 82% and the growth at 0.5 µM (U-251 [12]) was 60%. It also gave a growth at 0.5 µM (SF-268) of 87%, a growth at 0.5 µM (NCI-H522 [13]) of 60% and a growth at 0.5 µM (NCI-H460) of 55%. The growth at 0.5 µM (SR) was 80%, the growth at 0.5 µM (MOLT-4) was 77% and the growth at 0.05 µM (MDA-MB-231 [14]) was 95%. It also gave a growth at 0.05 µM (MCF7) of 91%, a growth at 0.05 µM (PC-3) of 90% and a growth at 0.05 µM (MDA-MB-435 [15]) of 98%. It also gave a growth at 0.05 µM (U-251 [16]) of 94%, a growth at 50 µM (SN12C [17]) of -45% and a growth at 50 µM (OVCAR-8) of -11%. For the same compound, the growth at 0.05 µM (HCT-15) was 97%, the growth at 0.05 µM [18] was 105% and the growth at 0.05 µM (NCI-H322M) was 103%. For the same compound, the growth at 0.05 µM (NCI-H226 [19]) was 90%, the growth at 0.005 µM (OVCAR-3) was 114% and the growth at 0.005 µM (M14 [20]) was 105%. It also gave a growth at 0.005 µM (SNB-19) of 95% and a growth at 0.005 µM (SF-295) of 90%.
For `COc1cc(-c2nn(-c3cccc(NC(=O)Nc4ccc(Cl)c(Cl)c4)c3)cc2-c2ccncc2)ccc1Cl`, the growth at 50 µM (MDA-MB-435 [1]) was -31%, the growth at 50 µM (Malme-3M) was -43% and the growth at 50 µM (COLO 205) was -94%. For the same compound, the growth at 5 µM (BT-549) was 8%, the growth at 5 µM (MDA-MB-231 [2]) was -47% and the growth at 5 µM (M14 [3]) was -29%. The growth at 5 µM (U-251 [4]) was -32%, the growth at 0.005 µM (NCI-H522 [5]) was 101% and the growth at 0.005 µM (NCI-H226 [6]) was 98%. The growth at 0.005 µM (K562 [7]) was 103%, the growth at 5 µM (LOX IMVI) was -32% and the growth at 5 µM [8] was 2%. For the same compound, the growth at 5 µM (K562 [9]) was 5%, the growth at 5 µM (CCRF-CEM) was -2% and the growth at 0.5 µM (MDA-MB-231 [10]) was 66%. For the same compound, the growth at 0.5 µM (SN12C [11]) was 82%, the growth at 0.5 µM (OVCAR-5) was 89% and the growth at 0.5 µM (U-251 [12]) was 72%. The growth at 0.5 µM (SF-268) was 89%, the growth at 0.5 µM (NCI-H522 [13]) was 68% and the growth at 0.5 µM (NCI-H460) was 74%. The growth at 0.5 µM (SR) was 78%, the growth at 0.5 µM (MOLT-4) was 78% and the growth at 0.05 µM (MDA-MB-231 [14]) was 89%. For the same compound, the growth at 0.05 µM (MCF7) was 92%, the growth at 0.05 µM (PC-3) was 95% and the growth at 0.05 µM (MDA-MB-435 [15]) was 97%. It also gave a growth at 0.05 µM (U-251 [16]) of 93%, a growth at 50 µM (SN12C [17]) of 10% and a growth at 50 µM (OVCAR-8) of -16%. It also gave a growth at 0.05 µM (HCT-15) of 95%, a growth at 0.05 µM [18] of 100% and a growth at 0.05 µM (NCI-H322M) of 102%. The growth at 0.05 µM (NCI-H226 [19]) was 92%, the growth at 0.005 µM (OVCAR-3) was 104% and the growth at 0.005 µM (M14 [20]) was 100%. For the same compound, the growth at 0.005 µM (SNB-19) was 92% and the growth at 0.005 µM (SF-295) was 93%.
